Data from patent US10722501B2 (BAYER AKTIENGESELLSCHAFT, priority 2016, dated 2020).

Target: T1, recombinant full-length human prolyl endopeptidase (PREP) (Homo sapiens, UniProt P48147)
T1 construct: To recombinant full-length human prolyl endopeptidase (PREP, R&D-Systems, 4308-SE); purchased R&D-Systems 4308-SE
T1 sequence (P48147 1-710): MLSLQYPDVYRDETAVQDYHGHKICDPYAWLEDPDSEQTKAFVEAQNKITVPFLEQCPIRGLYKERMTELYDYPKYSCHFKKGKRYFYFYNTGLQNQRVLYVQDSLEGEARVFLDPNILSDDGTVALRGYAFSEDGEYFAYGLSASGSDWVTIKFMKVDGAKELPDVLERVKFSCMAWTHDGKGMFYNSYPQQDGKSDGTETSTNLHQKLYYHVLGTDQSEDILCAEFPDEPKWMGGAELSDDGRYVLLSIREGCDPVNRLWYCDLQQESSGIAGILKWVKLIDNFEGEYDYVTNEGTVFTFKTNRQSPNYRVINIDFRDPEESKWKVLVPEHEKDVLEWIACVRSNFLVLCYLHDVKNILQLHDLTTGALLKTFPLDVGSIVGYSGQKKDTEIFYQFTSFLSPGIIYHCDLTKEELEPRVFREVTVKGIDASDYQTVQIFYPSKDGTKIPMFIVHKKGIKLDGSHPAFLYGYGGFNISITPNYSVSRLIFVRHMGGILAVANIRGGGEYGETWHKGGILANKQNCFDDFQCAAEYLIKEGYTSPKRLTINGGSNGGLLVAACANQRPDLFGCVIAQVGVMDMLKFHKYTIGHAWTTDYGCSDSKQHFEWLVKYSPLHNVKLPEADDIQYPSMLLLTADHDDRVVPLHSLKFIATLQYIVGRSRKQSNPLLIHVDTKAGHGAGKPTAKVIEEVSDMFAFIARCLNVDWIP
Assay: Biochemical human prolyl endopeptidase (PREP) assay with fluorescently labelled substrate
Conditions: substrate Z-Gly-Pro-AMC 50 μM, 32° C., 60 min; some as mean values from multiple independent determinations
How it was run: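 0.4 nM (final, example) recombinant PREP in pH 7.5 Tris buffer with EDTA, GSH, BSA and Brij-35; compounds at 1 nM to 30 μM. Reaction started with 50 μM Z-Gly-Pro-AMC and followed by fluorescence (ex 360/em 465 nm) at 32° C for 60 min. IC50 interpolated from percent activity based on initial slopes.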

| Compound | IC50 [nM] |
| --- | --- |
| Cc1ccccc1Cn1nc2n(c1=O)C(C(=O)N1CCCC1)CCC2 (racemic) [Example 58, (5RS)-2-(2-Methylbenzyl)-5-(pyrrolidin-1-ylcarbonyl)-5,6,7,8-tetrahydro[1,2,4]triazolo[4,3-a]pyridin-3(2H)-one] | 4 |
| O=C(C1CCCc2nn(Cc3ccnc(Cl)c3)c(=O)n21)N1CCCC1 (racemic) [Example 59, (5RS)-2-[(2-Chloropyridin-4-yl)methyl]-5-(pyrrolidin-1-ylcarbonyl)-5,6,7,8-tetrahydro[1,2,4]triazolo[4,3-a]pyridin-3(2H)-one] | 12.2 |
| Cc1nonc1Cn1nc2n(c1=O)C(C(=O)N1CCCC1)CCC2 (racemic) [Example 60, (5RS)-2-[(4-Methyl-1,2,5-oxadiazol-3-yl)methyl]-5-(pyrrolidin-1-ylcarbonyl)-5,6,7,8-tetrahydro[1,2,4]triazolo[4,3-a]pyridin-3(2H)-one] | 18.5 |
| Cc1cc(Cn2nc3n(c2=O)C(C(=O)N2CCCC2)CCC3)no1 (racemic) [Example 61, (5RS)-2-[(5-Methyl-1,2-oxazol-3-yl)methyl]-5-(pyrrolidin-1-ylcarbonyl)-5,6,7,8-tetrahydro[1,2,4]triazolo[4,3-a]pyridin-3(2H)-one] | 16 |
| O=C(C1CCCc2nn(Cc3ccc(OC(F)(F)F)c(F)c3)c(=O)n21)N1CCCC1 (racemic) [Example 67, (5RS)-2-[3-Fluoro-4-(trifluoromethoxy)benzyl]-5-(pyrrolidin-1-ylcarbonyl)-5,6,7,8-tetrahydro[1,2,4]triazolo[4,3-a]pyridin-3(2H)-one] | 8.7 |
| O=C(C1CCCc2nn(Cc3ncc(C(F)(F)F)cc3Cl)c(=O)n21)N1CCCC1 (racemic) [Example 68, (5RS)-2-{[3-Chloro-5-(trifluoromethyl)pyridin-2-yl]methyl}-5-(pyrrolidin-1-ylcarbonyl)-5,6,7,8-tetrahydro[1,2,4]triazolo[4,3-a]pyridin-3(2H)-one] | 3.9 |
| O=C(C1CCCc2nn(Cc3noc(-c4cccc(C(F)(F)F)c4)n3)c(=O)n21)N1CCCC1 (racemic) [Example 69, (5RS)-5-(Pyrrolidin-1-ylcarbonyl)-2-({5-[3-(trifluoromethyl)phenyl]-1,2,4-oxadiazol-3-yl}methyl)-5,6,7,8-tetrahydro[1,2,4]triazolo[4,3-a]pyridin-3(2H)-one] | 210 |
| CCn1ccnc1Cn1nc2n(c1=O)C(C(=O)N1CCCC1)CCC2 (racemic) [Example 70, (5RS)-2-[(1-Ethyl-1H-imidazol-2-yl)methyl]-5-(pyrrolidin-1-ylcarbonyl)-5,6,7,8-tetrahydro[1,2,4]triazolo[4,3-a]pyridin-3(2H)-one] | 11 |
| Cc1nc(C(F)(F)F)c(Cn2nc3n(c2=O)C(C(=O)N2CCCC2)CCC3)s1 (racemic) [Example 77, (5RS)-2-{[2-Methyl-4-(trifluoromethyl)-1,3-thiazol-5-yl]methyl}-5-(pyrrolidin-1-ylcarbonyl)-5,6,7,8-tetrahydro[1,2,4]triazolo[4,3-a]pyridin-3(2H)-one] | 4.8 |
| O=C(C1CCCc2nn(Cc3ccc(Cl)cn3)c(=O)n21)N1CCC(F)(F)C1 (racemic) [Example 78, (5RS)-2-[(5-Chloropyridin-2-yl)methyl]-5-[(3,3-difluoropyrrolidin-1-yl)carbonyl]-5,6,7,8-tetrahydro[1,2,4]triazolo[4,3-a]pyridin-3(2H)-one] | 6 |
| O=C(C1CCCc2nn(Cc3ccc(C(F)(F)F)nc3)c(=O)n21)N1CCC(F)(F)C1 (racemic) [Example 79, (5RS)-5-[(3,3-Difluoropyrrolidin-1-yl)carbonyl]-2-{[6-(trifluoromethyl)pyridin-3-yl]methyl}-5,6,7,8-tetrahydro[1,2,4]triazolo[4,3-a]pyridin-3(2H)-one] | 6.7 |
| O=C(C1CCCc2nn(Cc3ccc(Cl)nc3)c(=O)n21)N1CCC(F)(F)C1 (racemic) [Example 80, (5RS)-2-[(6-Chloropyridin-3-yl)methyl]-5-[(3,3-difluoropyrrolidin-1-yl)carbonyl]-5,6,7,8-tetrahydro[1,2,4]triazolo[4,3-a]pyridin-3(2H)-one] | 16 |
| O=C(C1CCCc2nn(Cc3ccc(C(F)(F)F)nc3)c(=O)n21)N1CCCC1 (racemic) [Example 84, (5RS)-5-(Pyrrolidin-1-ylcarbonyl)-2-{[6-(trifluoromethyl)pyridin-3-yl]methyl}-5,6,7,8-tetrahydro[1,2,4]triazolo[4,3-a]pyridin-3(2H)-one] | 5.7 |

Compounds with a lower IC50, results first:

| IC50 [nM] | Compound |
| --- | --- |
| 2.1 | O=C(C1CCCc2nn(Cc3ccc(F)c(F)c3)c(=O)n21)N1CCC(F)(F)C1 (racemic) [Example 83, (5RS)-2-(3,4-Difluorobenzyl)-5-[(3,3-difluoropyrrolidin-1-yl)carbonyl]-5,6,7,8-tetrahydro[1,2,4]triazolo[4,3-a]pyridin-3(2H)-one] |
| 2 | Cn1c(Cn2nc3n(c2=O)C(C(=O)N2CCCC2)CCC3)nc2ccccc21 (racemic) [Example 62, (5RS)-2-[(1-Methyl-1H-benzimidazol-2-yl)methyl]-5-(pyrrolidin-1-ylcarbonyl)-5,6,7,8-tetrahydro[1,2,4]triazolo[4,3-a]pyridin-3(2H)-one] |
| 1.85 | O=C(C1CCCc2nn(Cc3cc(C(F)(F)F)ccc3C(F)(F)F)c(=O)n21)N1CCCC1 (racemic) [Example 65, (5RS)-2-[2,5-Bis(trifluoromethyl)benzyl]-5-(pyrrolidin-1-ylcarbonyl)-5,6,7,8-tetrahydro[1,2,4]triazolo[4,3-a]pyridin-3(2H)-one] |
| 1.75 | O=C(C1CCCc2nn(Cc3cc(Cl)cc(Cl)c3)c(=O)n21)N1CCC(F)(F)C1 (racemic) [Example 82, (5RS)-2-(3,5-Dichlorobenzyl)-5-[(3,3-difluoropyrrolidin-1-yl)carbonyl]-5,6,7,8-tetrahydro[1,2,4]triazolo[4,3-a]pyridin-3(2H)-one] |
| 1.5 | O=C(C1CCCc2nn(Cc3ccc(OC(F)(F)F)c(Cl)c3)c(=O)n21)N1CCCC1 (racemic) [Example 73, (5RS)-2-[3-Chloro-4-(trifluoromethoxy)benzyl]-5-(pyrrolidin-1-ylcarbonyl)-5,6,7,8-tetrahydro[1,2,4]triazolo[4,3-a]pyridin-3(2H)-one] |
| 0.94 | Cn1ncc2cc(Cn3nc4n(c3=O)C(C(=O)N3CCCC3)CCC4)ccc21 (racemic) [Example 64, (5RS)-2-[(1-Methyl-1H-indazol-5-yl)methyl]-5-(pyrrolidin-1-ylcarbonyl)-5,6,7,8-tetrahydro[1,2,4]triazolo[4,3-a]pyridin-3(2H)-one] |
| 0.84 | O=C(C1CCCc2nn(Cc3cc(Cl)cc(Cl)c3)c(=O)n21)N1CCCC1 (racemic) [Example 81, (5RS)-2-(3,5-Dichlorobenzyl)-5-(pyrrolidin-1-ylcarbonyl)-5,6,7,8-tetrahydro[1,2,4]triazolo[4,3-a]pyridin-3(2H)-one] |
| 0.83 | O=C(C1CCCc2nn(Cc3cc(F)cc(C(F)(F)F)c3)c(=O)n21)N1CCCC1 (racemic) [Example 72] |
| 0.74 | COc1ccc(Cn2nc3n(c2=O)C(C(=O)N2CCCC2)CCC3)cc1C(F)(F)F (racemic) [Example 63] |
| 0.71 | O=C(C1CCCc2nn(Cc3cccc(C(F)(F)F)c3F)c(=O)n21)N1CCCC1 (racemic) [Example 71] |
| 0.38 | O=C(C1CCCc2nn(Cc3ccc(F)c(C(F)(F)F)c3)c(=O)n21)N1CCCC1 (racemic) [Example 66] |
